The results in this text go back to ChEMBL document CHEMBL2029286, “Trisubstituted imidazoles as Mycobacterium tuberculosis glutamine synthetase inhibitors” (J Med Chem, 2012).

Values after ≈ are worked out from the molar mass of the structure shown. Some results are limits rather than exact numbers.

Assay [1] is described as follows: Inhibition of Mycobacterium tuberculosis H37Rv glutamine synthetase expressed in Escherichia coli GJ4745 after 1 hr.
Assay [2] concerns Mycobacterium tuberculosis. Briefly: Antitubercular activity against Mycobacterium tuberculosis H37Rv ATCC 27294 after 5 days by resazurin microtitre assay. Type of assay: functional. The following applies: H37Rv ATCC 27294, 120 h.
The next assay concerns A549. Briefly: Cytotoxicity against human A549 cells after 72 hrs by resazurin reduction assay. The assay is classed as cell-based. To be noted: A549, 72 h.
Assay [3] in a line: Selectivity ratio of IC50 for human A549 cells to MIC for Mycobacterium tuberculosis H37Rv ATCC 27294. The assay is classed as functional.

As to `COc1ccc2cc(-c3nc(C(C)(C)C)[nH]c3-c3ccncc3)ccc2c1`, in assay [1], the IC50 was 3.1 µM. Moreover, the MIC in assay [2] was above 32 µg/mL.

Take `COc1ccc2cc(-c3nc(C(C)(C)C)[nH]c3-c3ccccc3)ccc2c1`: in assay [1], the half-inhibitory concentration (IC50) was above 25 µM.

Regarding `COc1ccc2cc(-c3nc(C(C)(C)C)[nH]c3-c3ncccn3)ccc2c1`, the IC50 in assay [1] was above 25 µM.

`COc1ccc2cc(-c3nc(C(C)(C)C)[nH]c3-c3cncnc3)ccc2c1`: in assay [1], the IC50 was above 25 µM.

As to `CCc1nc(-c2ccc3cc(OC)ccc3c2)c(-c2ccncc2)[nH]1`, the IC50 in assay [1] was found to be 2.2 µM. Also, in assay [2], the MIC is above 32 µg/mL.

The compound `COc1ccc2cc(-c3nc(C)[nH]c3-c3ccncc3)ccc2c1` registered an IC50 in assay [1] above 25 µM.

Take `COc1ccc2cc(-c3nc[nH]c3-c3ccncc3)ccc2c1`: the half-maximal inhibitory concentration (IC50) in assay [1] was above 25 µM.

In assay [1], `COc1ccc2cc(-c3nc(COCc4ccccc4)[nH]c3-c3ccncc3)ccc2c1` gave an IC50 above 25 µM.

In turn, `COc1ccc2cc(-c3nc(CO)[nH]c3-c3ccncc3)ccc2c1` yielded an IC50 in assay [1] above 25 µM.

`COc1ccc2cc(-c3nc(C(C)(C)c4ccccc4)[nH]c3-c3ccncc3)ccc2c1` showed an IC50 in assay [1] above 25 µM.

In the case of `COc1ccc2cc(-c3nc(-c4cccc(O)c4)[nH]c3-c3ccncc3)ccc2c1`, the IC50 in assay [1] is above 25 µM.

`COc1ccc2cc(-c3nc(-c4ccc[nH]4)[nH]c3-c3ccncc3)ccc2c1` registered an IC50 in assay [1] above 25 µM.

For the compound `COc1ccc2cc(-c3nc(C(C)(C)C)[nH]c3-c3ccnc(F)c3)ccc2c1`, in assay [1], the IC50 was 1.2 µM. In assay [2], this compound gave an MIC of 64 µg/mL (≈ 170 µM).

With `COc1ccc2cc(-c3nc(C(C)(C)C)[nH]c3-c3ccnc(N)c3)ccc2c1`, in assay [2], the MIC is 2 µg/mL (≈ 5.37 µM). In the assay on A549, this compound showed an IC50 of 24.7 µM. In addition, the “Ratio IC50” value in assay [3] was found to be 5.

`CNc1cc(-c2[nH]c(C(C)(C)C)nc2-c2ccc3cc(OC)ccc3c2)ccn1` displayed an IC50 in assay [1] of 5.2 µM. The lowest concentration to inhibit growth in assay [2] (MIC) was 8 µg/mL (≈ 20.7 µM).

Take `COc1ccc2cc(-c3nc(C(C)(C)C)[nH]c3-c3ccnc(N(C)C)c3)ccc2c1`: in assay [1], the IC50 is above 25 µM.

For `CC(C)(C)c1nc(-c2cnc3ccccc3c2)c(-c2ccncc2)[nH]1`, the MIC in assay [2] is above 32 µg/mL.

For the compound `COc1ccc2cc(-c3nc(-c4ccccc4)[nH]c3-c3ccncc3)ccc2c1`, the IC50 in assay [1] was above 25 µM.
